Source: patent US20220257774A1, “AROMATIC AMINE AR AHD BET TARGETING PROTEIN DEGRADATION CHIMERA COMPOUND AND USE” (HINOVA PHARMACEUTICALS INC., priority 2019, published 2022)
Read-outs that look alike come from different tables or passages of the source.

Columns and labels:
LNCaP/AR cells = assay: Inhibition of the proliferation of LNCap/AR cells (CCK-8); assay type: cell-based; conditions: read-out: LNCap/AR IC50
Summary of the method: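 Proliferation was read by CCK-8 (OD 450 nm, 1 h) after six days of compound exposure. Cells were seeded at 1000 per well overnight, then dosed in duplicate over nine 3-fold steps with a top final concentration of 10 μM in 0.1% DMSO; IC50 was fitted from inhibition curves.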

22RV1 cells = assay: Inhibition of the proliferation of drug-resistant prostate cancer cell 22RV1 (CCK-8); assay type: cell-based; conditions: 22RV1 cells (enzalutamide-resistant), same method
Summary of the method: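 22RV1 cells, 1000/well in RPMI1640 with 10% FBS, treated in duplicate with 9-point 3-fold dilutions from 10 μM (0.1% DMSO final). After 6 days at 37 °C, CCK-8 added for 1 h and OD450 read. IC50 from dose-response inhibition fit.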

[1] = 144 h, LNCaP/AR cells, 6 days culture, CCK-8
[2] = LNCaP/AR cells, 6 days culture, CCK-8

| IC50 (LNCaP/AR cells; [1]) [nM] | IC50 (22RV1 cells; Homo sapiens) [nM] | Structure (SMILES) | IC50 (LNCaP/AR cells; [2]) [nM] | IC50 (22RV1 cells) [nM] | IC50 (LNCaP/AR cells; LNCaP/AR, 144 h) [nM] |
| --- | --- | --- | --- | --- | --- |
| 101 to 500 | < 100 | Cc1ccc(-c2c(C)noc2C)cc1N(c1ccc(C2(C#N)CC2)cc1)C1CN(C2CCN(c3ccc4c(c3)C(=O)N(C3CCC(=O)NC3=O)C4=O)CC2)C1 (stereo not shown) [Compound 66] |  |  |  |
| 101 to 500 | > 2000 | Cc1ccc(-c2c(C)noc2C)cc1N(CCCOC1CN(c2ccc3c(c2)C(=O)N(C2CCC(=O)NC2=O)C3=O)C1)c1ccc(C2(C#N)CC2)cc1 (stereo not shown) [Compound 119, 1-(4-((5-(3,5-dimethylisoxazol-4-yl)-2-methylphenyl)(3-((1-(2-(2,6-dioxopiperidin-3-yl)-1,3-dioxoisoindolin-5-yl)azetidin-3-yl)oxy)propyl)amino)phenyl)cyclopropane-1-nitrile] |  |  |  |
| > 2000 | > 2000 | Cc1ccc(-c2c(C)noc2C)cc1N(CC(C)OC1CN(c2ccc3c(c2)C(=O)N(C2CCC(=O)NC2=O)C3)C1)c1ccc(C2(C#N)CC2)cc1 (stereo not shown) [Compound 179, 1-(4-((5-(3,5-Dimethylisoxazol-4-yl)-2-methylphenyl)(2-((1-(2-(2,6-dioxopiperidin-3-yl)-3-oxoisoindolin-5-yl)azacyclobutane-3-yl)oxy)propyl)amino)phenyl)cyclopropane-1-nitrile] |  |  |  |
| > 2000 | > 2000 | Cc1ccc(-c2c(C)noc2C)cc1N(c1ccc(C2(C#N)CC2)cc1)C1CN(c2ccc3c(c2)C(=O)N(C2CCC(=O)NC2=O)C3=O)C1 (stereo not shown) [Compound 35, 1-(4-((5-(3,5-Dimethylisoxazol-4-yl)-2-methylphenyl)(1-(2-(2,6-dioxopiperidin-3-yl)-1,3-dioxoisoindolin-5-yl)azetidin-3-yl)amino)phenyl)cyclopropane-1-nitrile] |  |  |  |
| 501 to 2000 | 101 to 500 | Cc1ccc(-c2c(C)noc2C)cc1N(CC(C)OC1CN(c2cc3c(cc2F)C(=O)N(C2CCC(=O)NC2=O)C3=O)C1)c1ccc(C2(C#N)CC2)cc1 (stereo not shown) [Compound 173, 1-(4-((5-(3,5-dimethylisoxazol-4-yl)-2-methylphenyl)(2-((1-(2-(2,6-dioxopiperidin-3-yl)-6-fluoro-1,3-dioxoisoindolin-5-yl)azacyclobutane-3-yl)oxy)propyl)amino)phenyl)cyclopropane-1-nitrile] |  |  |  |
| > 2000 | > 2000 | Cc1ccc(-c2c(C)noc2C)cc1N(CC1CN(C2CCN(c3ccc4c(c3)C(=O)N(C3CCC(=O)NC3=O)C4)CC2)C1)c1ccc(C2(C#N)CC2)cc1 (stereo not shown) [Compound 75, 1-(4-((5-(3,5-dimethylisoxazol-4-yl)-2-methylphenyl)((1-(1-(2-(2,6-dioxopiperidin-3-yl)-3-oxoisoindolin-5-yl)piperidin-4-yl)azetidin-3-yl)methyl)amino)phenyl)cyclopropane-1-carbonitrile] |  |  |  |
| > 2000 | < 100 | Cc1ccc(-c2c(C)noc2C)cc1N(CC1CCN(C2CN(c3cc4c(cc3F)C(=O)N(C3CCC(=O)NC3=O)C4)C2)CC1)c1ccc(C2(C#N)CC2)cc1 (stereo not shown) [Compound 160] |  |  |  |
| > 2000 | > 2000 | Cc1ccc(-c2c(C)noc2C)cc1N(CCOC1(C)CN(c2cc3c(cc2F)CN(C2CCC(=O)NC2=O)C3=O)C1)c1ccc(C2(C#N)CC2)cc1 (stereo not shown) [Compound 112, 1-(4-((5-(3,5-Dimethylisoxazol-4-yl)-2-methylphenyl)(2-((1-(2-(2,6-dioxopiperidin-3-yl)-6-fluoro-3-oxoisoindolin-5-yl)-3-methylazetidin-3-yl)oxy)ethyl)amino)phenyl)cyclopropanecarbonitrile] |  |  |  |

The remaining lines, values behind:

| Structure (SMILES) | IC50 (LNCaP/AR cells; [1]) [nM] | IC50 (22RV1 cells; Homo sapiens) [nM] | IC50 (LNCaP/AR cells; [2]) [nM] | IC50 (22RV1 cells) [nM] | IC50 (LNCaP/AR cells; LNCaP/AR, 144 h) [nM] |
| --- | --- | --- | --- | --- | --- |
| Cc1ccc(-c2c(C)noc2C)cc1N(CCN1CCN(c2ccc3c(c2)C(=O)N(C2CCC(=O)NC2=O)C3=O)CC1)c1ccc(C2(C#N)CC2)cc1 (stereo not shown) [Compound 64, 1-(4-((5-(3,5-Dimethylisoxazol-4-yl)-2-methylphenyl)(2-(4-(2-(2,6-dioxopiperidin-3-yl)-1,3-dioxoisoindolin-5-yl)piperazin-1-yl)ethyl)amino)phenyl)cyclopropane-1-nitrile] | 501 to 2000 | < 100 |  |  |  |
| Cc1ccc(-c2c(C)noc2C)cc1N(c1ccc(C2(C#N)CC2)cc1)C1CN([C@H]2CC[C@H](Nc3cc4c(cc3F)C(=O)N(C3CCC(=O)NC3=O)C4=O)CC2)C1 (stereo partly shown) [Compound 74] |  |  | > 2000 | > 2000 |  |
| Cc1ccc(-c2c(C)noc2C)cc1N(CC1CN(C2CN(c3cc4c(cc3F)C(=O)N(C3CCC(=O)NC3=O)C4=O)C2)C1)c1ccc(C2(C#N)CC2)cc1 (stereo not shown) [Compound 153] |  |  | < 100 | < 100 |  |
| Cc1ccc(-c2c(C)noc2C)cc1N(CCCC1CCN(c2ccc3c(c2)C(=O)N(C2CCC(=O)NC2=O)C3)CC1)c1ccc(C2(C#N)CC2)cc1 (stereo not shown) [Compound 31, 1-(4-((5-(3,5-Dimethylisoxazol-4-yl)-2-methylphenyl)(3-(1-(2-(2,6-dioxopiperidin-3-yl)-3-oxoisoindolin-5-yl)piperidin-4-yl)propyl)amino)phenyl)cyclopropane-1-nitrile] | 101 to 500 | < 100 |  |  |  |
| Cc1ccc(-c2c(C)noc2C)cc1N(CC1CN(c2cc3c(cc2F)C(=O)N(C2CCC(=O)NC2=O)C3)C1)c1ccc(C2(C#N)CC2)cc1 (stereo not shown) [Compound 156] | 101 to 500 | 501 to 2000 |  |  |  |
| Cc1ccc(-c2c(C)noc2C)cc1N(CCCOC1CN(c2ccc3c(c2)CN(C2CCC(=O)NC2=O)C3=O)C1)c1ccc(C2(C#N)CC2)cc1 (stereo not shown) [Compound 122, 1-(4-((5-(3,5-dimethylisoxazol-4-yl)-2-methylphenyl)(3-((1-(2-(2,6-dioxopiperidin-3-yl)-1-oxoisoindolin-5-yl)azetidin-3-yl)oxy)propyl)amino)phenyl)cyclopropane-1-nitrile] | < 100 | < 100 |  |  |  |
| Cc1ccc(-c2c(C)noc2C)cc1N(CCCNc1cc2c(cc1F)C(=O)N(C1CCC(=O)NC1=O)C2=O)c1ccc(C2(C#N)CC2)cc1 (stereo not shown) [Compound 171, 1-(4-((5-(3,5-Dimethylisoxazol-4-yl)-2-methylphenyl)(3-((2-(2,6-dioxopiperidin-3-yl)-6-fluoro-1,3-dioxoidindolin-5-yl)amino)propyl)amino)phenyl)cyclopropane-1-nitrile] |  |  | > 2000 | > 2000 |  |
| Cc1ccc(-c2c(C)noc2C)cc1N(CCCOC1CN(c2ccc3c(c2)C(=O)N(C2CCC(=O)NC2=O)C3)C1)c1ccc(C2(C#N)CC2)cc1 (stereo not shown) [Compound 121, 1-(4-((5-(3,5-dimethylisoxazol-4-yl)-2-methylphenyl)(3-((1-(2-(2,6-dioxopiperidin-3-yl)-3-oxoisoindolin-5-yl)azetidin-3-yl)oxy)propyl)amino)phenyl)cyclopropane-1-nitrile] | 101 to 500 | < 100 |  |  |  |
| Cc1ccc(-c2c(C)noc2C)cc1N(CCCCNc1cc2c(cc1F)C(=O)N(C1CCC(=O)NC1=O)C2)c1ccc(C#N)c(Cl)c1 (stereo not shown) [Compound 167, 2-Chloro-4-((5-(3,5-dimethylisoxazol-4-yl)-2-methylphenyl)(4-((2-(2,6-dioxopiperidin-3)-6-fluoro-1-isoindolinone-5-yl)amino)butyl)amino)benzonitrile] |  | > 2000 |  |  | 501 to 2000 |
| Cc1ccc(-c2c(C)noc2C)cc1N(CC1CC(Nc2cc3c(cc2F)CN(C2CCC(=O)NC2=O)C3=O)C1)c1ccc(C2(C#N)CC2)cc1 (stereo not shown) [Compound 38] | > 2000 | 501 to 2000 |  |  |  |
| Cc1ccc(-c2c(C)noc2C)cc1N(CC1CN(c2cc3c(cc2F)CN(C2CCC(=O)NC2=O)C3=O)C1)c1ccc(C2(C#N)CC2)cc1 (stereo not shown) [Compound 155] | > 2000 | > 2000 |  |  |  |
| Cc1ccc(-c2c(C)noc2C)cc1N(C[C@H]1C[C@@H]1CNc1cc2c(cc1F)C(=O)N(C1CCC(=O)NC1=O)C2)c1ccc(C2(C#N)CC2)cc1 (stereo partly shown) [Compound 185] | > 2000 | > 2000 |  |  |  |
| Cc1ccc(-c2c(C)noc2C)cc1N(CC1CCC(Nc2cc3c(cc2F)CN(C2CCC(=O)NC2=O)C3=O)CC1)c1ccc(C2(C#N)CC2)cc1 (stereo not shown) [Compound 162, 1-(4-((5-(3,5-Dimethylisoxazol-4-yl)-2-methylphenyl)(((1s,4s)-4-((2-(2,6-dioxopiperidin-3)-6-fluoro-3-isoindolinone-5-yl)amino)cyclohexyl)methyl)amino)phenyl)phenylcyclopropanecarbonitrile] |  |  | 101 to 500 | > 2000 |  |
| Cc1ccc(-c2c(C)noc2C)cc1N(CC1CC2(C1)CN(c1cc3c(cc1F)C(=O)N(C1CCC(=O)NC1=O)C3)C2)c1ccc(C2(C#N)CC2)cc1 (stereo not shown) [Compound 125, 1-(4-((5-(3,5-dimethylisoxazol-4-yl)-2-methylphenyl)((2-(2-(2-,2,6-dioxopiperidin-3-yl)-6-fluoro-1-oxoisoindolin-5-yl)-2-azaspiro[3.3]heptan-6-yl)methyl)amino)phenyl)cyclopropane-1-carbonitrile] | 501 to 2000 | 501 to 2000 |  |  |  |
| Cc1ccc(-c2c(C)noc2C)cc1N(C[C@H]1C[C@@H]1CNc1cc2c(cc1F)CN(C1CCC(=O)NC1=O)C2=O)c1ccc(C2(C#N)CC2)cc1 (stereo partly shown) [Compound 184] | > 2000 | > 2000 |  |  |  |
| Cc1ccc(-c2c(C)noc2C)cc1N(C[C@H]1C[C@@H]1CNc1ccc2c(c1)C(=O)N(C1CCC(=O)NC1=O)C2=O)c1ccc(C2(C#N)CC2)cc1 (stereo partly shown) [Compound 182] | > 2000 | 101 to 500 |  |  |  |
| Cc1ccc(-c2c(C)noc2C)cc1N(CC1CCC(COc2ccc3c(c2)CN(C2CCC(=O)NC2=O)C3=O)CC1)c1ccc(C#N)c(Cl)c1 (stereo not shown) [Compound 105, 2-Chloro-4-((5-(3,5-dimethylitsoxazol-4-yl)-2-methylphenyl)((1r,4r)-4-((2-((2,6-dioxopiperidin-3-yl)-1-oxoisoindolin-5-yl)oxy)methyl)cyclohexyl)methyl)amino)benzonitrile] |  |  | 501 to 2000 | 101 to 500 |  |
| Cc1ccc(-c2c(C)noc2C)cc1N(CCCCNc1cc2c(cc1F)C(=O)N(C1CCC(=O)NC1=O)C2=O)c1ccc(C2(C#N)CC2)cc1 (stereo not shown) [Compound 40] | 501 to 2000 | 101 to 500 |  |  |  |
